Experimental data reported in patent US10829473B2, “Modulators of the cystic fibrosis transmembrane conductance regulator protein and methods of use” (AbbVie Overseas S.Á.R.L., priority 2017, dated 2020).
Like-named read-outs stand apart in the source and are kept apart here.

Target: T1, F508delCFTR (Homo sapiens, UniProt P13569, DEL508-508)
T1 construct: expressed in transfected cells; host or cells: CFBE41o- human lung derived epithelial cells (CFBE41o-F508delCFTR-HRP), doxycycline-inducible
Test: Cell Surface Expression-Horse Radish Peroxidase (CSE-HRP) Assay;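 as to EC50 (with co-corrector): co-corrector chromenyl benzoic acid corrector at 2 or 3 µM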;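 as to Maximum % activity (without co-corrector): % of on-plate positive control chromenyl benzoic acid corrector at 2 or 3 µM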
Type: cell-based
Conditions: for Emax: read-out: Maximum % activity (without co-corrector)
Summary of the method: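 Corrector compounds were given as 8-point 3-fold series from 20 or 30 μM, with or without a 2 μM co-corrector, for 18-24 h at 33 °C. Surface HRP was read by luminol luminescence as % of positive control; variable-Hill-slope sigmoidal fitting gave EC50 from triplicate plates.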

[1] = test compound alone, without co-corrector, read-out: EC50 (without co-corrector)
[2] = with co-corrector, maximum at any tested concentration
[3] = with co-corrector, read-out: EC50 (with co-corrector)
[4] = without co-corrector, maximum at any tested concentration
[5] = test compound with co-corrector, maximum at any tested concentration
[6] = test compound with co-corrector, read-out: EC50 (with co-corrector)
[7] = test compound without co-corrector, maximum at any tested concentration
[8] = test compound without co-corrector, read-out: EC50 (without co-corrector)

T1 sequence (P13569 with tags, fused parts or gaps DEL508-508): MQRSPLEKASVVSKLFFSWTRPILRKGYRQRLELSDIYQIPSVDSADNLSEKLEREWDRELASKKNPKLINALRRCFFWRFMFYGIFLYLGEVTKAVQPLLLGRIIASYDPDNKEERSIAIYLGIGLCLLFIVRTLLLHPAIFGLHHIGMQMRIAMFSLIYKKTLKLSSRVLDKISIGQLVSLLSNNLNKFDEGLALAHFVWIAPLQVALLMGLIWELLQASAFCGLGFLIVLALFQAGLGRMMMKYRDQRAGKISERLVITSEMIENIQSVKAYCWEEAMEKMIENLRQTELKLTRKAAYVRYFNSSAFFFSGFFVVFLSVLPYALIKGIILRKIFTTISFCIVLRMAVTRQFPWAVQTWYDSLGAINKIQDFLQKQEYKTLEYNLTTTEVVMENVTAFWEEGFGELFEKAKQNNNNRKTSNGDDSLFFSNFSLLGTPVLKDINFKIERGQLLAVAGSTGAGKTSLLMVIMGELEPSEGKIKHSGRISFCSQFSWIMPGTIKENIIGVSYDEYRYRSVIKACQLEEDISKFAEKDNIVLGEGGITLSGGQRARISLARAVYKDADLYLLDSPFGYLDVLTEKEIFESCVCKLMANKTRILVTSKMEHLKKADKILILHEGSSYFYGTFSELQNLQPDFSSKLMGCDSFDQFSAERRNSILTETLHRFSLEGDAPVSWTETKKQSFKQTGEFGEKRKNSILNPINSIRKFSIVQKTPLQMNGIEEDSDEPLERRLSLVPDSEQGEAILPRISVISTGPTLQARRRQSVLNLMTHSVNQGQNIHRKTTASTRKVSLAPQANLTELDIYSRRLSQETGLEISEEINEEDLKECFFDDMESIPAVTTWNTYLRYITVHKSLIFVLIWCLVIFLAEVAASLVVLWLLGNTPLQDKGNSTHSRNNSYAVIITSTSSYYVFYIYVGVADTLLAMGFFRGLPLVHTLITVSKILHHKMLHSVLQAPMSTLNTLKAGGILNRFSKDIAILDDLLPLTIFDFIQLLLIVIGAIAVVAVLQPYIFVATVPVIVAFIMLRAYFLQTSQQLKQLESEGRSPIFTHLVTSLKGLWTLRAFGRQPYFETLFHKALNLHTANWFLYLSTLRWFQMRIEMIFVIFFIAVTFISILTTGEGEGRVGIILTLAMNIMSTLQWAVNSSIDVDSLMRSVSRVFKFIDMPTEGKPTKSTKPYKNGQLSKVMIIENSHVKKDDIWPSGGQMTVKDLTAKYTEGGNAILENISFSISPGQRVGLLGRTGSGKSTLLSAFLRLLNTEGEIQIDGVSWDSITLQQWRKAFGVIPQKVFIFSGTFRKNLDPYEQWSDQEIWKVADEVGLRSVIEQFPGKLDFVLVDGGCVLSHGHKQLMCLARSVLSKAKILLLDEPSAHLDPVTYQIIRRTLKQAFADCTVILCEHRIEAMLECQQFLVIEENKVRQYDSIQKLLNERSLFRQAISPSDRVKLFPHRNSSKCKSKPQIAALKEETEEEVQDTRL

| Structure (SMILES) | EC50 [1] [µM] | Maximum % activity (with co-corrector) [2] | EC50 [3] [µM] | Emax [4] [%] | Maximum % activity (with co-corrector) [5] | EC50 [6] [µM] | Emax [7] [%] | EC50 [8] [µM] | Emax [%] |
| --- | --- | --- | --- | --- | --- | --- | --- | --- | --- |
| O=C(NS(=O)(=O)CC(F)(F)F)C1(c2ccc(Cl)cc2Cl)CC1 [Example III-106, 1-(2,4-dichlorophenyl)-N-(2,2,2-trifluoroethanesulfonyl)cyclopropane-1-carboxamide] | > 10 | + (<150) | > 10 | < 50 | – | – | – | – | – |
| CCOc1ccc(C)cc1C1(C(=O)NS(=O)(=O)c2cccc3nc(C)ccc23)CC1 [Example I-83, 1-(2-ethoxy-5-methylphenyl)-N-(2-methylquinoline-5-sulfonyl)cyclopropane-1-carboxamide] | < 3 | +++ (≥350) | < 3 | > 150 | – | – | – | – | – |
| COc1ccc(C23CC(C2)C3)cc1C1(C(=O)NS(=O)(=O)c2cccc3ncccc23)CC1 [Example I-38, 1-[5-(bicyclo[1.1.1]pentan-1-yl)-2-methoxyphenyl]-N-(quinoline-5-sulfonyl)cyclopropane-1-carboxamide] | < 3 | +++ (≥350) | < 3 | > 150 | – | – | – | – | – |
| CN(C)c1ncc(C(F)(F)F)cc1C1(C(=O)NS(=O)(=O)c2cccc3ccccc23)CC1 [Example I-30, 1-[2-(dimethylamino)-5-(trifluoromethyl)pyridin-3-yl]-N-(naphthalene-1-sulfonyl)cyclopropane-1-carboxamide] | < 3 | +++ (≥350) | < 3 | > 150 | – | – | – | – | – |
| CCc1cnc(N2CCC(OC(C)C)CC2)c(C2(C(=O)NS(=O)(=O)c3cccc4ncccc34)CC2)c1 [GII-54, 1-(5-ethyl-2-{4-[(propan-2-yl)oxy]piperidin-1-yl}pyridin-3-yl)-N-(quinoline-5-sulfonyl)cyclopropane-1-carboxamide] | – | – | – | – | +++ (≥350) | 3 to 10 | > 150 | 3 to 10 | – |
| Cc1ccc(O[C@H]2CCOC2)c(C2(C(=O)NS(=O)(=O)c3cccc4nc(C)ccc34)CC2)c1 [Example I-124, 1-(5-methyl-2-{[(3S)-oxolan-3-yl]oxy}phenyl)-N-(2-methylquinoline-5-sulfonyl)cyclopropane-1-carboxamide] | < 3 | +++ (≥350) | < 3 | > 150 | – | – | – | – | – |
| Cc1ccc(S(=O)(=O)NC(=O)C2(c3ccc(Cl)cc3Cl)CC2)cc1 [Example III-37, 1-(2,4-dichlorophenyl)-N-(4-methylbenzene-1-sulfonyl)cyclopropane-1-carboxamide] | > 10 | ++ (≥150 and <350) | 3 to 10 | < 50 | – | – | – | – | – |
| O=C(NS(=O)(=O)c1cccc2c1CCCN2)C1(c2ccc(C(F)(F)F)nc2C2CC2)CC1 [Example GI-6, 1-[2-cyclopropyl-6-(trifluoromethyl)pyridin-3-yl]-N-(1,2,3,4-tetrahydroquinoline-5-sulfonyl)cyclopropane-1-carboxamide] | 3 to 10 | +++ (≥350) | < 3 | > 150 | – | – | – | – | – |
| COC(=O)c1ccc(OC)c(C2(C(=O)NS(=O)(=O)c3cccc4ccccc34)CC2)c1 [II-32] | 3 to 10 | +++ (≥350) | < 3 | – | – | – | – | – | > 150 |
| CN(C)c1cccc2c(S(=O)(=O)NC(=O)C3(c4cccc(Cl)c4)CC3)cccc12 [Example III-58, 1-(3-chlorophenyl)-N-[5-(dimethylamino)naphthalene-1-sulfonyl]cyclopropane-1-carboxamide] | > 10 | ++ (≥150 and <350) | 3 to 10 | < 50 | – | – | – | – | – |
| Cc1cnc(OCC2CC2)c(C2(C(=O)NS(=O)(=O)c3cccc4nc(C)ccc34)CC2)c1 [Example GI-101, 1-[2-(cyclopropylmethoxy)-5-methylpyridin-3-yl]-N-(2-methylquinoline-5-sulfonyl)cyclopropane-1-carboxamide] | – | – | – | – | +++ (≥350) | < 3 | > 150 | 3 to 10 | – |
| COc1cc(C2CCC2)cc(OC)c1C1(C(=O)NS(=O)(=O)c2cccc3ccn(C)c23)CC1 [II-66] | < 3 | +++ (≥350) | < 3 | > 150 | – | – | – | – | – |
| COc1cc(C2(C(=O)NS(=O)(=O)c3cccc4ncccc34)CC2)c(OCC(C)C)cn1 [Example GI-19, 1-[2-methoxy-5-(2-methylpropoxy)pyridin-4-yl]-N-(quinoline-5-sulfonyl)cyclopropane-1-carboxamide] | 3 to 10 | +++ (≥350) | < 3 | > 150 | – | – | – | – | – |
| COc1ccc(C2CCC2)cc1C1(C(=O)NS(=O)(=O)c2cccc3c2CCCN3)CC1 [Example I-16, 1-(5-cyclobutyl-2-methoxyphenyl)-N-(1,2,3,4-tetrahydroquinoline-5-sulfonyl)cyclopropane-1-carboxamide] | 3 to 10 | +++ (≥350) | < 3 | > 150 | – | – | – | – | – |
| COC(=O)c1ccc(OC)c(C2(C(=O)NS(=O)(=O)c3cccc4ncccc34)CC2)c1 [II-31] | 3 to 10 | +++ (≥350) | < 3 | – | – | – | – | – | > 150 |
| CCc1ccc(O[C@@H]2CCOC2)c(C2(C(=O)NS(=O)(=O)c3cccc4ncccc34)CC2)c1 [Example I-118, 1-(5-ethyl-2-{[(3R)-oxolan-3-yl]oxy}phenyl)-N-(quinoline-5-sulfonyl)cyclopropane-1-carboxamide] | < 3 | +++ (≥350) | < 3 | > 150 | – | – | – | – | – |
| COc1ccc(OC)c(C2(C(=O)NS(=O)(=O)c3cccc4ncccc34)CC2)c1 [Example I-29, 1-(2,5-dimethoxyphenyl)-N-(quinoline-5-sulfonyl)cyclopropane-1-carboxamide] | < 3 | +++ (≥350) | < 3 | > 150 | – | – | – | – | – |
| CC(C)Oc1ncccc1C1(C(=O)NS(=O)(=O)c2cccc3c2CCCN3)CC1 [GII-4, 1-{2-[(propan-2-yl)oxy]pyridin-3-yl}-N-(1,2,3,4-tetrahydroquinoline-5-sulfonyl)cyclopropane-1-carboxamide] | – | – | – | – | ++ (≥150 and <350) | 3 to 10 | 50 to 150 | 3 to 10 | – |
| Cc1ccc(OC(C)C)c(C2(C(=O)NS(=O)(=O)c3cccc4nc(C)ccc34)CC2)c1 [Example I-78, 1-{5-methyl-2-[(propan-2-yl)oxy]phenyl}-N-(2-methylquinoline-5-sulfonyl)cyclopropane-1-carboxamide] | < 3 | +++ (≥350) | < 3 | > 150 | – | – | – | – | – |
| O=C(NS(=O)(=O)c1cccc2c1CCCN2)C1(c2cc(C3CC3)cnc2N2CCCC2)CC1 [GII-29, 1-[5-cyclopropyl-2-(pyrrolidin-1-yl)pyridin-3-yl]-N-(1,2,3,4-tetrahydroquinoline-5-sulfonyl)cyclopropane-1-carboxamide] | – | – | – | – | +++ (≥350) | 3 to 10 | > 150 | 3 to 10 | – |
| Cc1cnc(N2CCN(C)CC2)c(C2(C(=O)NS(=O)(=O)c3cccc4ncccc34)CC2)c1 [GIII-26] | – | – | – | – | ++ (≥150 and <350) | > 10 | < 50 | > 10 | – |
| COc1cc(C)ccc1C1(C(=O)NS(=O)(=O)c2cccc3ncccc23)CC1 [II-63] | < 3 | +++ (≥350) | < 3 | > 150 | – | – | – | – | – |
| COc1ccc2c(S(=O)(=O)NC(=O)C3(c4cc(C5CC5)cnc4OC(C)C)CC3)cccc2n1 [II-95] | < 3 | +++ (≥350) | < 3 | > 150 | – | – | – | – | – |
| Cc1cnc(OC(C)C)c(C2(C(=O)NS(=O)(=O)c3cccc4[nH]ncc34)CC2)c1 [Example III-131, N-(1H-indazole-4-sulfonyl)-1-{5-methyl-2-[(propan-2-yl)oxy]pyridin-3-yl}cyclopropane-1-carboxamide] | 3 to 10 | +++ (≥350) | 3 to 10 | > 150 | – | – | – | – | – |
| COc1ccc(C2CC2)c(C)c1C1(C(=O)NS(=O)(=O)c2cccc3nc(C)ccc23)CC1 [II-52] | < 3 | +++ (≥350) | < 3 | > 150 | – | – | – | – | – |
| CC(C)Oc1ncc(CO)cc1C1(C(=O)NS(=O)(=O)c2cccc3ncccc23)CC1 [GIII-35] | – | – | – | – | + (<150) | > 10 | < 50 | > 10 | – |
| CCOc1ccc(OC)c(C2(C(=O)NS(=O)(=O)c3cccc4ncccc34)CC2)c1 [Example I-31, 1-(5-ethoxy-2-methoxyphenyl)-N-(quinoline-5-sulfonyl)cyclopropane-1-carboxamide] | < 3 | +++ (≥350) | < 3 | > 150 | – | – | – | – | – |
| COc1cc(C2CCC2)cc(OC)c1C1(C(=O)NS(=O)(=O)c2cccc3ncccc23)CC1 [Example I-80, 1-(4-cyclobutyl-2,6-dimethoxyphenyl)-N-(quinoline-5-sulfonyl)cyclopropane-1-carboxamide] | 3 to 10 | +++ (≥350) | < 3 | > 150 | – | – | – | – | – |
| COc1ccc2c(S(=O)(=O)NC(=O)C3(c4cc(C5CC5)cnc4OCC(C)C)CC3)cccc2n1 [II-93] | < 3 | +++ (≥350) | < 3 | > 150 | – | – | – | – | – |
